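A five-concentration, 48-hour dose response in 96-well plates underlies each endpoint, interpolated linearly between surrounding concentrations. GI50 marks 50% less growth.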 Calls of active or inactive are those of the source. Rule as the data show it: active = GI50 up to about 1.1 µM and inactive = higher.
What was measured:
Experiment in all cases: inhibition of tumour cell growth, NCI panel, 48 h
ACHN = tested on: ACHN
BT-549 = tested on: BT-549
CAKI-1 = tested on: CAKI-1
EKVX = tested on: EKVX
HCC 2998 = tested on: HCC 2998
HCT-116 = tested on: HCT-116
HOP-92 = tested on: HOP-92
MDA-MB-435 = tested on: MDA-MB-435
NCI-H460 = tested on: NCI-H460
NCI-H522 = tested on: NCI-H522
NCI/ADR-RES = tested on: NCI/ADR-RES
OVCAR-5 = tested on: OVCAR-5
RXF 393 = tested on: RXF 393
SK-MEL-2 = tested on: SK-MEL-2
T47D = tested on: T47D
UACC-257 = tested on: UACC-257
CCRF-CEM = tested on: CCRF-CEM
NCI-H226 = tested on: NCI-H226
SK-MEL-5 = tested on: SK-MEL-5

Measured: GI50

O=C(N/N=C\c1cccc(O)c1)c1ccncc1
inactive: ACHN > 100 µM | BT-549 > 100 µM | CAKI-1 > 100 µM | EKVX > 100 µM | HCC 2998 > 100 µM | HCT-116 > 100 µM | HOP-92 > 100 µM | MDA-MB-435 > 100 µM | NCI-H460 > 100 µM | NCI-H522 > 100 µM | NCI/ADR-RES > 100 µM | OVCAR-5 > 100 µM | RXF 393 > 100 µM | SK-MEL-2 > 100 µM | T47D > 100 µM | UACC-257 > 100 µM

CN(Cc1cccc2ccccc12)Cc1cccc2ccccc12
inactive: ACHN 37.6 µM | BT-549 56.4 µM | CAKI-1 50.1 µM | CCRF-CEM 16.6 µM | EKVX 37.5 µM | HCC 2998 22.7 µM | HCT-116 13.4 µM | MDA-MB-435 35.7 µM | NCI-H226 30.9 µM | NCI-H460 40.6 µM | NCI-H522 19 µM | NCI/ADR-RES 47.5 µM | OVCAR-5 43 µM | RXF 393 47.1 µM | SK-MEL-2 14.1 µM | SK-MEL-5 18.5 µM | T47D 21 µM | UACC-257 50.1 µM

CCc1cc2c(c3c1CCCC3)CC1(Cc3ccc(C(=O)OC)cc3C1)C2 (configuration not stated)
inactive: ACHN > 100 µM | BT-549 > 100 µM | CCRF-CEM 18.3 µM | EKVX 64.4 µM | HCC 2998 > 100 µM | HCT-116 54.3 µM | HOP-92 36.7 µM | MDA-MB-435 52.6 µM | NCI-H226 > 100 µM | NCI-H460 > 100 µM | NCI-H522 > 100 µM | NCI/ADR-RES > 100 µM | OVCAR-5 > 100 µM | RXF 393 > 100 µM | SK-MEL-2 94.6 µM | SK-MEL-5 71.8 µM | T47D 46.8 µM | UACC-257 53.1 µM

COc1c(O)cc2c(c1O)C(=O)/C(=C/c1ccc(O)cc1)CO2
inactive: ACHN 19.8 µM | BT-549 32.9 µM | CAKI-1 22.2 µM | CCRF-CEM 18.1 µM | EKVX 28.8 µM | HOP-92 36.1 µM | MDA-MB-435 33.6 µM | NCI-H460 30.1 µM | NCI-H522 14.4 µM | NCI/ADR-RES 22.9 µM | OVCAR-5 29 µM | RXF 393 33.7 µM | SK-MEL-2 27 µM | SK-MEL-5 22 µM | T47D 30.8 µM | UACC-257 31.9 µM

NC(=O)N/N=C1/CCC(O)CC1CC(=O)O (configuration not stated)
inactive: ACHN > 100 µM | BT-549 > 100 µM | CAKI-1 > 100 µM | CCRF-CEM 36.3 µM | EKVX > 100 µM | HCT-116 > 100 µM | HOP-92 > 100 µM | MDA-MB-435 > 100 µM | NCI-H226 > 100 µM | NCI-H460 > 100 µM | NCI-H522 > 100 µM | NCI/ADR-RES > 100 µM | OVCAR-5 > 100 µM | RXF 393 > 100 µM | SK-MEL-2 > 100 µM | SK-MEL-5 > 100 µM | T47D > 100 µM | UACC-257 > 100 µM

Cc1ccc(C2=Nn3c(nc4sc(-c5ccccc5)cc4c3=O)SC2)cc1
inactive: ACHN > 100 µM | BT-549 > 100 µM | CAKI-1 > 100 µM | CCRF-CEM > 100 µM | EKVX > 100 µM | HCC 2998 > 100 µM | HCT-116 > 100 µM | HOP-92 > 100 µM | MDA-MB-435 > 100 µM | NCI-H226 > 100 µM | NCI-H460 > 100 µM | NCI-H522 > 100 µM | NCI/ADR-RES > 100 µM | OVCAR-5 > 100 µM | RXF 393 > 10 µM | SK-MEL-5 > 100 µM | T47D > 100 µM | UACC-257 > 100 µM

Cc1ccc(NC=O)c(-c2c(N)[nH]c(=S)[nH]c2=O)c1
inactive: ACHN 60.7 µM | BT-549 > 100 µM | CAKI-1 > 100 µM | CCRF-CEM > 100 µM | EKVX > 100 µM | HCT-116 > 100 µM | HOP-92 > 100 µM | MDA-MB-435 94 µM | NCI-H226 > 100 µM | NCI-H522 > 100 µM | NCI/ADR-RES > 100 µM | OVCAR-5 > 100 µM | RXF 393 > 100 µM | SK-MEL-2 > 100 µM | SK-MEL-5 > 100 µM | T47D > 100 µM | UACC-257 > 100 µM

COc1cccc(/C=N/NC(=O)CN(C)C)c1O
inactive: ACHN > 100 µM | BT-549 > 100 µM | CAKI-1 > 100 µM | CCRF-CEM > 100 µM | EKVX > 100 µM | HCC 2998 > 100 µM | HCT-116 > 100 µM | HOP-92 > 100 µM | MDA-MB-435 > 100 µM | NCI-H226 72.8 µM | NCI-H460 > 100 µM | NCI-H522 > 100 µM | NCI/ADR-RES > 100 µM | OVCAR-5 > 100 µM | RXF 393 > 100 µM | SK-MEL-5 > 100 µM | T47D > 100 µM | UACC-257 > 100 µM

CCOC(=O)c1nc2ccccc2nc1Oc1ccc(OC)cc1
inactive: ACHN > 100 µM | BT-549 > 100 µM | CCRF-CEM > 100 µM | EKVX > 100 µM | HCT-116 > 100 µM | HOP-92 > 100 µM | MDA-MB-435 > 100 µM | NCI-H226 > 100 µM | NCI-H460 > 100 µM | NCI-H522 29 µM | NCI/ADR-RES > 100 µM | OVCAR-5 > 100 µM | RXF 393 > 100 µM | SK-MEL-2 > 100 µM | SK-MEL-5 > 100 µM | T47D > 100 µM | UACC-257 > 100 µM

O=C(NCCCCCCNCc1cccc2ccccc12)Nc1cccc2ccccc12
inactive: ACHN > 100 µM | BT-549 > 100 µM | CAKI-1 > 100 µM | CCRF-CEM > 100 µM | EKVX > 100 µM | HCC 2998 85.3 µM | HCT-116 > 100 µM | HOP-92 > 100 µM | MDA-MB-435 > 100 µM | NCI-H460 > 100 µM | NCI-H522 > 100 µM | NCI/ADR-RES > 100 µM | OVCAR-5 63.1 µM | RXF 393 > 100 µM | SK-MEL-2 > 100 µM | SK-MEL-5 > 100 µM | T47D > 100 µM | UACC-257 > 100 µM

O=C1CCSSCCC(=O)NCCN1
inactive: ACHN > 100 µM | BT-549 > 100 µM | CAKI-1 > 100 µM | CCRF-CEM > 100 µM | EKVX > 100 µM | HCT-116 > 100 µM | HOP-92 > 100 µM | MDA-MB-435 > 100 µM | NCI-H226 > 100 µM | NCI-H460 > 100 µM | NCI-H522 > 100 µM | NCI/ADR-RES > 100 µM | OVCAR-5 > 100 µM | RXF 393 > 100 µM | SK-MEL-2 > 100 µM | SK-MEL-5 > 100 µM | T47D > 100 µM | UACC-257 > 100 µM
